Test results: the supplement of paper PMC11208160

test: recombinant UMI read abundance after kanamycin selection (control-corrected) (log10(CPM+1)); higher = more efficient recombination; extreme values may be limits of the assay; sequences stand for … in AGTGCAGAGAAAATCGGCCAGTTTTCTCTGCCTGCAGTCCGCATGCCGTGGGACCCCTTGGGTTCTAACCTGTTGCCTAGATTTATGCAGCGGACTGCCTTTCTCCCAAAGTGATAAACCGG…AGGTTGGTTTCACT; site = the 11-nt donor
Procedure, shortened: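 Pooled Escherichia coli screen of donor and donor-binding-loop pairs for the IS621 bridge recombinase. Each pair sits with a 12-nt UMI on a plasmid carrying a promoterless kanamycin gene. The library was co-electroporated with a target plasmid encoding a fixed target and T7-inducible recombinase, then plated with IPTG (0.07 mM) plus kanamycin, or unselected, each in two replicates. Recombinant UMIs were PCR-amplified across the donor–target junction and sequenced. Counts became CPM, averaged over replicates, scaled by control-derived factors and reported as log10(CPM+1).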
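Note: IS621 bridge recombinase in Escherichia coli cells against a fixed T5 target plasmid.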

Sequence | recombinant UMI read abundance (log10)
AGGAAGACATGGACCGGTTTTCCCGGTAATCCGTATTTGCA (site AATAAGACTTG) | 1.43
GATCTCACATGGACCGGTTTTCCCGGTAATCCGTATTTGAT (site GAACTCACTAT) | 0.831
CACTTGTCATGGACCGGTTTTCCCGGTAATCCGTATTTGGA (site CACTTGCCTTC) | 0.0181
ATGATGGCATGGACCGGTTTTCCCGGTAATCCGTATTTGAC (site ATGATGGCTGT) | 2.7
AGCCAAGCATGGACCGGTTTTCCCGGTAATCCGTATTTGAG (site AACCAAGCTCT) | 0.0428
AGGAAGACATGGACCGGTTTTCCCGGTAATCCGTATTTGCA (site AGAAAAACTTG) | 0
TAGAATCCATGGACCGGTTTTCCCGGTAATCCGTATTTGCA (site TAGAATACTTG) | 0
CCCGCACCATGGACCGGTTTTCCCGGTAATCCGTATTTGCA (site CCCGCACCTTG) | 0
CCCGGTCCATGGACCGGTTTTCCCGGTAATCCGTATTTGCA (site CCCGGACCTTG) | 0
AGGAAGACATGGACCGGTTTTCCCGGTAATCCGTATTTGCA (site AGGTAGACTTT) | 0.0208
GGTCCAACATGGACCGGTTTTCCCGGTAATCCGTATTTGAT (site GGTCCAACTAT) | 0
TTCGCCACATGGACCGGTTTTCCCGGTAATCCGTATTTGAG (site TTCGCCACTCT) | 0
ATCTATCCATGGACCGGTTTTCCCGGTAATCCGTATTTGAC (site ATCTATCCTGT) | 0.991
CTCCGTGCATGGACCGGTTTTCCCGGTAATCCGTATTTGGC (site CTCCGTGCTGC) | 1.87
CGAGGAACATGGACCGGTTTTCCCGGTAATCCGTATTTGTT (site CGTGGAACTAA) | 1.82
AGCCTCTCATGGACCGGTTTTCCCGGTAATCCGTATTTGAC (site AGCCTTTCTGT) | 0
CCCTTCTCATGGACCGGTTTTCCCGGTAATCCGTATTTGAG (site CCCTTCTCTCA) | 0.00351
GCCACGCCATGGACCGGTTTTCCCGGTAATCCGTATTTGTT (site GCCACGCCTGA) | 0
CAGTATCCATGGACCGGTTTTCCCGGTAATCCGTATTTGTT (site CAGTATCCTAA) | 1.87
AAAGCAGCATGGACCGGTTTTCCCGGTAATCCGTATTTGCT (site CAAGCAGCTAG) | 1.5
CCGAAACCATGGACCGGTTTTCCCGGTAATCCGTATTTGTT (site CGGAATCCTAA) | 0.00312
GTGGAGACATGGACCGGTTTTCCCGGTAATCCGTATTTGTG (site GTGGAGACTCA) | 1.59
CATTAGACATGGACCGGTTTTCCCGGTAATCCGTATTTGAG (site CATTAGACTCT) | 1.89
CTCTATACATGGACCGGTTTTCCCGGTAATCCGTATTTGAC (site ATCTATACTGT) | 0
CGAGGACCATGGACCGGTTTTCCCGGTAATCCGTATTTGTG (site CGAGGACCTCG) | 0

Sequence | recombinant UMI read abundance (log10)
AATTTTGCATGGACCGGTTTTCCCGGTAATCCGTATTTGGA (site AATTTTGCTTC) | 1
GGGGCACCATGGACCGGTTTTCCCGGTAATCCGTATTTGAA (site GGGGCACCTTA) | 0.00926
GGTGTGGCATGGACCGGTTTTCCCGGTAATCCGTATTTGTT (site GGTGTGGCTAA) | 0.894
TTCCCGCCATGGACCGGTTTTCCCGGTAATCCGTATTTGAA (site TTCCCGCCTTT) | 0.0206
TGCTAGGCATGGACCGGTTTTCCCGGTAATCCGTATTTGAT (site TGCTAGGCTAA) | 0.0172
CCCGATCCATGGACCGGTTTTCCCGGTAATCCGTATTTGTG (site CCCGATCCTCA) | 1.73
TCCTAGTCATGGACCGGTTTTCCCGGTAATCCGTATTTGTA (site TCCTAGTCTTA) | 0.256
GATTGTACATGGACCGGTTTTCCCGGTAATCCGTATTTGAC (site GATTGTACTGT) | 0.604
GCTTACCCATGGACCGGTTTTCCCGGTAATCCGTATTTGAT (site GCTTCCCCTAT) | 0
GGTTGCCCATGGACCGGTTTTCCCGGTAATCCGTATTTGAT (site GGTTGCCCTAT) | 0.0592
CTCCAAGCATGGACCGGTTTTCCCGGTAATCCGTATTTGAG (site GTCCAAGCTCT) | 0.0157
TATTGGGCATGGACCGGTTTTCCCGGTAATCCGTATTTGTG (site TATTCGGCTCA) | 0.00589
CGAGGACCATGGACCGGTTTTCCCGGTAATCCGTATTTGGG (site CGAGGACCTTC) | 0.00702
GCGAAAACATGGACCGGTTTTCCCGGTAATCCGTATTTGCT (site GCGAATACTAG) | 0
CCGCATACATGGACCGGTTTTCCCGGTAATCCGTATTTGTT (site CCGCATACTAA) | 0.39
GAAGATTCATGGACCGGTTTTCCCGGTAATCCGTATTTGAT (site GAAGATTCTAA) | 0.773
CGGGAAACATGGACCGGTTTTCCCGGTAATCCGTATTTGCA (site CCGGAAACTTG) | 1.45
CGATTTCCATGGACCGGTTTTCCCGGTAATCCGTATTTGTT (site CGATTTCCTAA) | 0.757
GCTGCGCCATGGACCGGTTTTCCCGGTAATCCGTATTTGGA (site GCTGCGCCTTC) | 0.0238
ATGTAGACATGGACCGGTTTTCCCGGTAATCCGTATTTGGC (site ATGTAGTCTGC) | 1.67
GCACTTTCATGGACCGGTTTTCCCGGTAATCCGTATTTGGG (site GCACTTTCTCC) | 2.31
AGGCCTACATGGACCGGTTTTCCCGGTAATCCGTATTTGAC (site AGGCCTACTGT) | 2.67
CGCCCTACATGGACCGGTTTTCCCGGTAATCCGTATTTGCT (site CGCCTTACTAG) | 0
ACACGAGCATGGACCGGTTTTCCCGGTAATCCGTATTTGTC (site ACACGATCTGA) | 2.27
TTCGGATCATGGACCGGTTTTCCCGGTAATCCGTATTTGCT (site TTCGGATCTAG) | 0

Sequence | recombinant UMI read abundance (log10)
AGGAAGACATGGACCGGTTTTCCCGGTAATCCGTATTTGCA (site AGGAATACTAG) | 0
CATTTGGCATGGACCGGTTTTCCCGGTAATCCGTATTTGGA (site CAATTGGCTTC) | 0.313
GTACTAACATGGACCGGTTTTCCCGGTAATCCGTATTTGGC (site GTACTAACTGC) | 2.4
ATGCAGGCATGGACCGGTTTTCCCGGTAATCCGTATTTGGC (site ATGCAGGCTGC) | 2.77
TCTGAGCCATGGACCGGTTTTCCCGGTAATCCGTATTTGTT (site TCTGAGCCTAA) | 0.0283
CTAGGATCATGGACCGGTTTTCCCGGTAATCCGTATTTGAC (site CTAGGATCTGT) | 1.9
TAGCTAGCATGGACCGGTTTTCCCGGTAATCCGTATTTGAA (site TAGCAAGCTTT) | 0.00493
ACGGGACCATGGACCGGTTTTCCCGGTAATCCGTATTTGTA (site ACGGGACCTTA) | 0.00398
CGGATGTCATGGACCGGTTTTCCCGGTAATCCGTATTTGTG (site CGGATGTCTCA) | 2.74
GGTACGTCATGGACCGGTTTTCCCGGTAATCCGTATTTGTT (site GGTACGTCTAC) | 0
ATAAGGCCATGGACCGGTTTTCCCGGTAATCCGTATTTGCC (site ATAAGGCCTGG) | 1.07
GGGACGTCATGGACCGGTTTTCCCGGTAATCCGTATTTGTT (site GGCACGTCTAA) | 0.0541
ACGTTAGCATGGACCGGTTTTCCCGGTAATCCGTATTTGTG (site TCGTTAGCTCA) | 0.526
GAGAATACATGGACCGGTTTTCCCGGTAATCCGTATTTGCA (site GAGAATACTTG) | 2.23
CAAGCAGCATGGACCGGTTTTCCCGGTAATCCGTATTTGGT (site CAAGCAGCTAT) | 1.85
GCCAGACCATGGACCGGTTTTCCCGGTAATCCGTATTTGGA (site GCCAGACCTTC) | 0.0205
TGCTATGCATGGACCGGTTTTCCCGGTAATCCGTATTTGGT (site TGCTACGCTAC) | 0.0173
CTAGCGCCATGGACCGGTTTTCCCGGTAATCCGTATTTGTG (site CAAGCGCCTCA) | 0.0754
TGGGTCCCATGGACCGGTTTTCCCGGTAATCCGTATTTGGT (site TGGGTCCCTAC) | 0.00844
CAAGGCCCATGGACCGGTTTTCCCGGTAATCCGTATTTGGC (site CAAGGCCCTGC) | 2.11
CATTCATCATGGACCGGTTTTCCCGGTAATCCGTATTTGCT (site CATTCATCTAG) | 1.4
TGAACACCATGGACCGGTTTTCCCGGTAATCCGTATTTGAC (site TGGACACCTGT) | 0
CGAGGACCATGGACCGGTTTTCCCGGTAATCCGTATTTGGG (site CGACGACCTCC) | 0.00414
ACTAGTTCATGGACCGGTTTTCCCGGTAATCCGTATTTGGT (site ACTAGTTCTAC) | 1.89
TAGAAAACATGGACCGGTTTTCCCGGTAATCCGTATTTGGA (site TAGAAAACTTC) | 0.76
